Laboratory results: ChEMBL document CHEMBL4251581, “Synthesis and antimycobacterial activity of triterpeni≿ A-ring azepanes” (Eur J Med Chem, 2018)
In brackets after ≈: the same amount, converted by molar mass.

Columns and labels:
[1] = tested on: Mycobacterium tuberculosis; assay: Antimycobacterial activity against Mycobacterium tuberculosis H37Rv; format: functional, organism-based
[2] = tested on: Mycobacterium tuberculosis; assay: Antimycobacterial activity against Mycobacterium tuberculosis H37Ra by microplate alamar blue assay; format: functional
[3] = tested on: Mycobacterium tuberculosis; assay: Bactericidal activity against Mycobacterium tuberculosis H37Rv; format: functional
[4] = tested on: Mycobacterium tuberculosis; assay: Antimycobacterial activity against p-aminosalicyclic acid-resistant Mycobacterium tuberculosis H37Rv ATCC 35821; format: functional

SMILES	IC50 [1] [µM]	IC90 [1] [µM]	MIC [1] [µM]	MIC [2] [µg/mL]	MBC [3] [µg/mL]	MIC [4] [µg/mL]
CC1(C)CC[C@]2(COC(=O)CCC(=O)O)CC[C@]3(C)C(=CC[C@@H]4[C@@]5(C)CCCNC(C)(C)[C@@H]5CC[C@]43C)[C@H]2C1	20.6	82.5	100 (≈ 54.2 µg/mL)	–	–	–
C=C(C)[C@@H]1CC[C@]2(COC(=O)/C=C/c3ccc(OC)cc3)CC[C@]3(C)[C@H](CC[C@@H]4[C@@]5(C)CCCNC(C)(C)[C@@H]5CC[C@]43C)[C@@H]12	160	> 200	> 200	–	–	–
CC1(C)CC[C@@]23CC[C@]4(C)C(OC2)(C(=O)C[C@@H]2[C@@]5(C)CCCNC(C)(C)[C@@H]5CC[C@]24C)[C@H]3C1	11	53	29 (≈ 13.2 µg/mL)	–	–	–
COC(=O)[C@]12CC[C@@H](C(C)CO)[C@@H]1[C@H]1CC[C@@H]3[C@@]4(C)CCC(=O)NC(C)(C)[C@@H]4CC[C@@]3(C)[C@]1(C)CC2 (stereo partly drawn)	5.7	18.3	12.5 (≈ 6.27 µg/mL)	–	–	–
CC1(C)CC[C@]2(C(=O)O)CC[C@]3(C)C(=CC[C@@H]4[C@@]5(C)CC[C@H](OC(=O)/C=C/c6ccc(O)cc6)C(C)(C)[C@@H]5CC[C@]43C)[C@@H]2C1	–	–	–	6.25 (≈ 10.4 µM)	–	–
CC1(C)CC[C@]2(COC(=O)/C=C/c3ccccc3)CC[C@]3(C)C(=CC[C@@H]4[C@@]5(C)CCCNC(C)(C)[C@@H]5CC[C@]43C)[C@H]2C1	8	12	12 (≈ 6.86 µg/mL)	–	12 (≈ 21 µM)	–
COC(=O)[C@]12CC[C@@H](C)[C@H](C)[C@@H]1C1=CC[C@@H]3[C@@]4(C)CCC(=O)NC(C)(C)[C@@H]4CC[C@@]3(C)[C@]1(C)CC2	–	–	> 10	–	–	–
CC(COC(=O)/C=C/c1ccccc1)[C@@H]1CC[C@]2(COC(=O)/C=C/c3ccccc3)CC[C@]3(C)[C@H](CC[C@@H]4[C@@]5(C)CCCNC(C)(C)[C@@H]5CC[C@]43C)[C@@H]12 (stereo partly drawn)	> 200	> 200	200 (≈ 144 µg/mL)	–	–	–
C=C(C)[C@@H]1CC[C@]2(CO)CC[C@]3(C)[C@H](CC[C@@H]4[C@@]5(C)CCCNC(C)(C)[C@@H]5CC[C@]43C)[C@@H]12	10.9	12.4	10 (≈ 4.42 µg/mL)	–	10 (≈ 22.6 µM)	5 (≈ 11.3 µM)
C/C(=N\O)[C@@H]1CC[C@]2(CO)CC[C@]3(C)[C@H](CC[C@@H]4[C@@]5(C)CCCNC(C)(C)[C@@H]5CC[C@]43C)[C@@H]12	43	41	43 (≈ 19.7 µg/mL)	–	–	–
COc1ccc(/C=C/C(=O)OC[C@]23CC[C@@H](C)[C@H](C)[C@@H]2C2=CC[C@@H]4[C@@]5(C)CCCNC(C)(C)[C@@H]5CC[C@@]4(C)[C@]2(C)CC3)cc1	1.8	2.5	3.12 (≈ 1.88 µg/mL)	–	12 (≈ 19.9 µM)	–
COC(=O)[C@]12CCC(C)(C)C[C@@H]1C1=CC[C@@H]3[C@@]4(C)CCC(=O)NC(C)(C)[C@@H]4CC[C@@]3(C)[C@]1(C)CC2	–	–	> 10	–	–	–
C[C@H]1[C@H](C)CC[C@]2(COC(=O)CCC(=O)O)CC[C@]3(C)C(=CC[C@@H]4[C@@]5(C)CCCNC(C)(C)[C@@H]5CC[C@]43C)[C@@H]12	92	110	111 (≈ 60.1 µg/mL)	–	–	–
C[C@H]1[C@H](C)CC[C@]2(CO)CC[C@]3(C)C(=CC[C@@H]4[C@@]5(C)CCCNC(C)(C)[C@@H]5CC[C@]43C)[C@@H]12	4.9	14.5	12.5 (≈ 5.52 µg/mL)	–	20 (≈ 45.3 µM)	–
CC(CO)[C@@H]1CC[C@]2(CO)CC[C@]3(C)[C@H](CC[C@@H]4[C@@]5(C)CCCNC(C)(C)[C@@H]5CC[C@]43C)[C@@H]12 (stereo partly drawn)	4.6	14.1	12.5 (≈ 5.75 µg/mL)	–	–	–
C=C(C)[C@@H]1CC[C@]2(COC(=O)CCC(=O)O)CC[C@]3(C)[C@H](CC[C@@H]4[C@@]5(C)CCCNC(C)(C)[C@@H]5CC[C@]43C)[C@@H]12	40	70	61 (≈ 33.1 µg/mL)	–	11 (≈ 20.3 µM)	–
C[C@H]1[C@H](C)CC[C@]2(COC(=O)/C=C/c3ccccc3)CC[C@]3(C)C(=CC[C@@H]4[C@@]5(C)CCCNC(C)(C)[C@@H]5CC[C@]43C)[C@@H]12	3.8	5.2	6.25 (≈ 3.57 µg/mL)	–	14 (≈ 24.5 µM)	–
C=C(C)[C@@H]1CC[C@]2(COC(=O)/C=C/c3ccccc3)CC[C@]3(C)[C@H](CC[C@@H]4[C@@]5(C)CCCNC(C)(C)[C@@H]5CC[C@]43C)[C@@H]12	6.7	7.7	10 (≈ 5.72 µg/mL)	–	4 (≈ 6.99 µM)	–
COC(=O)[C@]12CCC(C)(C)C[C@@H]1C1/C(=N/O)C[C@@H]3[C@@]4(C)CCC(=O)NC(C)(C)[C@@H]4CC[C@@]3(C)[C@]1(C)CC2 (stereo partly drawn)	54	97	97 (≈ 49.9 µg/mL)	–	–	–
CC1(C)CC[C@]2(CO)CC[C@]3(C)C(=CC[C@@H]4[C@@]5(C)CCCNC(C)(C)[C@@H]5CC[C@]43C)[C@H]2C1	3.8	11.5	12.5 (≈ 5.52 µg/mL)	–	20 (≈ 45.3 µM)	–
